In patent US20260265195A1, “SARM1 MODULATORS, PREPARATIONS, AND USES THEREOF” (SIRONAX LTD, priority 2022, published 2026) one finds IC50 data, which are given here for 34 molecules.

Some results are limits rather than exact numbers.

For this test, the target named is T1, SARM1 (50-724) (Homo sapiens, UniProt Q6SZW1).
T1 construct: Purified SARM1 (50-724) with a final concentration of 2 nM
T1 sequence (Q6SZW1 50-724): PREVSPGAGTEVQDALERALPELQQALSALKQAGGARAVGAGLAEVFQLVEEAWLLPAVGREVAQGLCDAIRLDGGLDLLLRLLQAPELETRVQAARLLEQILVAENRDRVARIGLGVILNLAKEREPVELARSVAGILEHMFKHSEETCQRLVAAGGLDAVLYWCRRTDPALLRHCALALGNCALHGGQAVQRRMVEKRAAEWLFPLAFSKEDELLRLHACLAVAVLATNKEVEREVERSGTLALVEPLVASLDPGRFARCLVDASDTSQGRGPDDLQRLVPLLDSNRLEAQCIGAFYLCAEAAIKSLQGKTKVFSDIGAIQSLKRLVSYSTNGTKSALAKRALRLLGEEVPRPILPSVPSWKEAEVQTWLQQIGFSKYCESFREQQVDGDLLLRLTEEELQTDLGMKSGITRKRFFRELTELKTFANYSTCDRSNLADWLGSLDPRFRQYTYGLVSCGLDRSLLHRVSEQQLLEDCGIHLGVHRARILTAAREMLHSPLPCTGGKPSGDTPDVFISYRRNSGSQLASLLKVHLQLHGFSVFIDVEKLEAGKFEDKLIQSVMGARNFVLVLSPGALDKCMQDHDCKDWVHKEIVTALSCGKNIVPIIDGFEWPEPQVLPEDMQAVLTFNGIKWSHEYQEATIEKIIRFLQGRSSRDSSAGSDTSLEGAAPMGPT
In words: SARM1 (50-724) enzymatic assay (NMN-activated NAD+ hydrolysis, LC-MS/MS readout). The test is classed as biochemical. The following applies: purified SARM1 (50-724) 2 nM, 200 μM NMN activator, 100 μM NAD+ substrate, 1 h at room temperature, read-out: IC50 (SARM1 inhibitory activity). The method, then:
Example II. SARM1 (50-724) Enzymatic Assay
An enzymatic assay was performed in a 384-well plate using Dulbecco's phosphate-buffered saline (PBS) as the reaction buffer. Purified SARM1 (50-724) with a final concentration of 2 nM was pre-incubated with a test compound at 1% DMSO final assay concentration for 15 min at room temperature. The reaction was initiated by adding a mixture of 200 μM nicotinamide mononucleotide (NMN) as activator and 100 μM NAD^+ as substrate. After 1 h of incubation at room temperature, the reaction was terminated with 10 times volume of 70% acetonitrile, then centrifuged at 3800 rpm for 10 min. The samples were analyzed using LC-MS/MS after diluted to a proper concentration by 10 mM ammonium acetate (pH 9.75).
ND means “not determined.”
For orientation: IC50 means the concentration that inhibits the measured activity by half. As to `COC1CN(CCN(C(=O)c2nc3cc(C(F)(F)F)ccc3[nH]2)c2cccc(Cl)c2Cl)C1` [Compound 167, N-(2,3-dichlorophenyl)-N-(2-(3-methoxyazetidin-1-yl)ethyl)-5-(trifluoromethyl)-1H-benzo[d]imidazole-2-carboxamide], the IC50 is at most 100 nM. The same measure for `O=C(c1nc2cc(C(F)(F)F)ccc2[nH]1)N(CCO)c1cccc(F)c1Cl` [Compound 157, N-(2-chloro-3-fluorophenyl)-N-(2-hydroxyethyl)-5-(trifluoromethyl)-1H-benzo[d]imidazole-2-carboxamide]: at most 100 nM; for `CC(C)(O)c1ccc2[nH]c(C(=O)N(CCO)c3cccc(Cl)c3Cl)nc2c1` [Compound 150, N-(2,3-dichlorophenyl)-N-(2-hydroxyethyl)-5-(2-hydroxypropan-2-yl)-1H-benzo[d]imidazole-2-carboxamide]: at most 100 nM; for `CN(C(=O)c1[nH]ccc1CO)C1CCCC1` [Compound 45, N-cyclopentyl-3-(hydroxymethyl)-N-mcthyl-1H-pyrrole-2-carboxamide]: at least 1000 nM. The same measure for `O=C(c1nc2c(F)c(Cl)ccc2[nH]1)N(CC(F)(F)CO)c1cccc(F)c1Cl` [Compound 236]: at most 100 nM; for `O=C(c1nc2cc(C(F)(F)F)ccc2[nH]1)N(CCN1CC(O)C1)c1cccc(Cl)c1Cl` [Compound 179, N-(2,3-dichlorophenyl)-N-(2-(3-hydroxyazetidin-1-yl)ethyl)-5-(trifluoromethyl)-1H-benzo[d]imidazole-2-carboxamide]: at most 100 nM; for `O=C(c1nc2cc(C(F)(F)F)ccc2[nH]1)N(CCO)c1cnccc1C(F)(F)F` [Compound 20, N-(2-hydroxyethyl)-5-(trifluoromethyl)-N-(4-(trifluoromethyl)pyridin-3-yl)-1H-benzo[d]imidazole-2-carboxamide]: at most 100 nM. To `Cc1ccnc(N(CC(F)(F)CO)C(=O)c2nc3cc(C(F)(F)F)ccc3[nH]2)c1Cl` [Compound 156, N-(3-chloro-4-methylpyridin-2-yl)-N-(2,2-difluoro-3-hydroxypropyl)-5-(trifluoromethyl)-1H-benzo[d]imidazole-2-carboxamide] belongs 101 to 500 nM; to `O=C(c1nc2cc(C(F)(F)F)cc(F)c2[nH]1)N(CC(F)(F)CO)c1cccc(F)c1Cl` [Compound 211], at most 100 nM; to `COc1ccc2c(CO)c(C(=O)N(C)C3CCCC3)[nH]c2c1` [Compound 29, N-cyclopentyl-3-(hydroxymethyl)-6-methoxy-N-methyl-1H-indole-2-carboxamide], at least 1000 nM.

For the molecule `O=C(c1nc2cc(C(F)(F)F)cc(F)c2[nH]1)N(c1cccc(F)c1Cl)C1CCS(=O)(=O)C1` (racemic) [Compound 192], the IC50 was at most 100 nM. To `Cc1ccc2[nH]c(C(=O)N(C)C3CC4CC4C3)nc2c1` (stereo not shown) [Compound 53, N-(bicyclo[3.1.0]hexan-1H-benzo[d]imidazole-2-carboxamide] belongs at least 1000 nM; to `COc1cc2[nH]c(C(=O)N(C)C3CCCC3)c(CO)c2cc1OC` [Compound 30, N-cyclopentyl-3-(hydroxymethyl)-5,6-dimethoxy-N-methyl-1H-indole-2-carboxamide], at least 1000 nM; to `O=C(c1nc2cc(C(F)(F)F)ccc2[nH]1)N(CC(F)(F)CO)c1ccc(F)cc1Cl` [Compound 216, N-(2-chloro-4-fluorophenyl)-N-(2,2-difluoro-3-hydroxypropyl)-5-(trifluoromethyl)-1H-benzo[d]imidazole-2-carboxamide], at most 100 nM. The same measure for `Cc1csc(-c2ccc3[nH]c(C(=O)N(CCO)c4cccc(Cl)c4Cl)nc3c2)n1` [Compound 153]: 101 to 500 nM. The same measure for `CN(C(=O)c1nc2ccccc2o1)C1CCCC1` [Compound 56, N-cyclopentyl-N-methylbenzo[d]oxazole-2-carboxamide]: at least 1000 nM; for `CC1(c2ccc3[nH]c(C(=O)N(CCO)c4cccc(Cl)c4Cl)nc3c2)COC1` [Compound 195]: at most 100 nM.

As to `COC(=O)C(C)(C)c1ccc2[nH]c(C(=O)N(CC3(F)COC3)c3cccc(Cl)c3Cl)nc2c1` [Compound 204], the IC50 was at most 100 nM. With `Cc1ccc2[nH]c(C(=O)NC3CCCC3)c(CO)c2c1` [Compound 26, N-cyclopenty1-3-(hydroxymethyl)-5-methyl-1H-indole-2-carboxamide], the half-maximal inhibitory concentration (IC50) is at least 1000 nM. Regarding `O=C(c1nc2cc(C(F)(F)F)ccc2[nH]1)N(c1cccc(Cl)c1Cl)C1CC(O)C1` (stereo not shown) [Compound 193, N-(2,3-dichlorophenyl)-N-(3-hydroxycyclobutyl)-5-(trifluoromethyl)-1H-benzo[d]imidazole-2-carboxamide], the IC50 is at most 100 nM. With `O=C(c1nc2cc(C(F)(F)F)ccc2[nH]1)N(CC(F)(F)C(=O)O)c1cccc(Cl)c1Cl` [Compound 106, 3-(N-(2,3-dichlorophenyl)-6-(trifluoromethyl)-1H-benzo[d]imidazole-2-carboxamido)-2,2-difluoropropanoic acid], the half-maximal inhibitory concentration (IC50) was at most 100 nM. The same measure for `CS(=O)(=O)CCCN(C(=O)c1nc2cc(C(F)(F)F)ccc2[nH]1)c1cccc(F)c1Br` [Compound 227, N-(2-bromo-3-fluorophenyl)-N-(3-(methylsulfonyl)propyl)-5-(trifluoromethyl)-1H-benzo[d]imidazole-2-carboxamide]: at most 100 nM; for `NC(=O)C(F)(F)CN(C(=O)c1nc2cc(Cl)cc(F)c2[nH]1)c1cccc(F)c1Cl` [Compound 234]: at most 100 nM.

In the case of `CNCCN(C(=O)c1nc2cc(C(F)(F)F)ccc2[nH]1)c1cccc(Cl)c1Cl` [Compound 121, N-(2,3-dichlorophenyl)-N-(2-(methylamino)ethyl)-5-(trifluoromethyl)-1H-benzo[d]imidazole-2-carboxamide], the IC50 lay in the range of 101 to 500 nM. For the molecule `Cc1cccc2c(CO)c(C(=O)N(C)C3CCCC3)[nH]c12` [Compound 39, N-cyclopentyl-3-(hydroxymethyl)-N,7-dimethyl-1H-indole-2-carboxamide], the IC50 was at least 1000 nM. To `CCOC(=O)C(F)(F)CN(C(=O)c1nc2cc(C3CC3)ccc2[nH]1)c1cccc(F)c1Cl` [Compound 209] belongs at most 100 nM. Turning to `Cc1c(Cl)cccc1N(C)C(=O)c1nc2cc(C(F)(F)F)ccc2[nH]1` [Compound 118, N-(3-chloro-2-methylphenyl)-N-methyl-5-(trifluoromethyl)-1H-benzo[d]imidazole-2-carboxamide], the IC50 is at most 100 nM. With `CN(C(=O)c1[nH]c2cc(Cl)ccc2c1CO)C1CCCC1` [Compound 41, 6-chloro-N-cyclopentyl-3-(hydroxymethyl)-N-methyl-1H-indole-2-carboxamide], the concentration for half-maximal inhibition (IC50) was at least 1000 nM. The same measure for `Cc1nsc(N(CC2(F)COC2)C(=O)c2nc3cc(C(F)(F)F)ccc3[nH]2)c1Cl` [Compound 188, N-(4-chloro-3-methylisothiazol-5-yl)-N-((3-fluorooxetan-3-yl)methyl)-5-(trifluoromethyl)-1H-benzo[d]imidazole-2-carboxamide]: 101 to 500 nM; for `Cc1ccc2[nH]c(C(=O)N(C)C3CCN(C)CC3)c(CNc3ccccn3)c2c1` [Compound 86, N,5-dimethyl-N-(1-methylpiperidin-4-yl)-3-((pyridin-2-ylamino)methyl)-1H-indole-2-carboxamide]: at least 1000 nM. The same measure for `O=C(c1nc2cc(C(F)(F)F)ccc2[nH]1)N(CC(O)CO)c1cccc(Cl)c1Cl` (racemic) [Compound 131, N-(2,3-dichlorophenyl)-N-(2,3-dihydroxypropyl)-5-(trifluoromethyl)-1H-benzo[d]imidazole-2-carboxamide]: at most 100 nM; for `CN(C(=O)c1nc2cc(Br)ccc2[nH]1)C1CCCC1` [Compound 104, 5-bromo-N-cyclopentyl-N-methyl-1H-benzo[d]imidazole-2-carboxamide]: 101 to 500 nM; for `CN(C(=O)c1nc2cc(C(F)(F)F)ccc2[nH]1)c1cc(F)cc(Cl)c1Cl` [Compound 120, N-(2,3-dichloro-5-fluorophenyl)-N-methyl-5-(trifluoromethyl)-1H-benzo[d]imidazole-2-carboxamido]: at most 100 nM.

Take `CN(C(=O)c1nc2c(C3CC(O)C3)cccc2[nH]1)C1CCCC1` (stereo not shown) [Compound 176, N-cyclopentyl-4-((1s,3s)-3-hydroxycyclobutyl)-N-methyl-1H-benzo[d]imidazole-2-carboxamide]: the concentration for half-maximal inhibition (IC50) is at least 1000 nM.
